Experiments:
Assay in all cases: relative IC50 (inflection point of fitted viability curve, relative to fitted max inhibition); higher = less sensitive
Conditions in all cases: 72 h
[1] = test system: KHYG-1 (IL-2 2.5 ng/mL)
Description: (§1)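 Drug sensitivity and resistance testing: 5 concentrations over a 10,000-fold range, 72 h at 37 °C, viability by CellTiter-Glo normalised to DMSO and benzethonium chloride controls. IC50 is the inflection point of a logistic fit (min fixed at 0, max fitted), so it is relative to the fitted maximal inhibition. Kept only where fitted max inhibition is at least 50%.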

[2] = test system: KAI3 (IL-2 2.5 ng/mL)
Description: as §1

[3] = test system: NK-YS (IL-2 2.5 ng/mL)
Description: as §1

[4] = test system: normal primary NK cells, pool 3 (3 donors) (IL-2 2.5 ng/mL)
Description: as §1

[5] = test system: YT (IL-2 2.5 ng/mL)
Description: as §1

[6] = test system: normal primary NK cells, pool 1 (3 donors), resting (IL-2 0 ng/mL)
Description: as §1

[7] = test system: NKL (IL-2 2.5 ng/mL)
Description: as §1

[8] = test system: IMC-1 (IL-2 20 ng/mL)
Description: as §1

[9] = test system: NK-92 (IL-2 2.5 ng/mL)
Description: as §1

[10] = test system: normal primary NK cells, pool 1 (3 donors) (IL-2 2.5 ng/mL)
Description: as §1

[11] = test system: SNK-6 (IL-2 2.5 ng/mL)
Description: as §1

[12] = test system: normal primary NK cells, pool 2 (3 donors) (IL-2 2.5 ng/mL)
Description: as §1

[13] = test system: DERL-7 (IL-2 2.5 ng/mL)
Description: as §1

| SMILES | relative IC50 [1] [nM] | relative IC50 [2] [nM] | relative IC50 [3] [nM] | relative IC50 [4] [nM] | relative IC50 [5] [nM] | relative IC50 [6] [nM] | relative IC50 [7] [nM] | relative IC50 [8] [nM] | relative IC50 [9] [nM] | relative IC50 [10] [nM] | relative IC50 [11] [nM] | relative IC50 [12] [nM] | relative IC50 [13] [nM] |
| --- | --- | --- | --- | --- | --- | --- | --- | --- | --- | --- | --- | --- | --- |
| CC(=O)NCC(=O)N1[C@@H]2CC[C@H]1c1ccc(Nc3ncc(C(F)(F)F)c(NC4CCC4)n3)cc12 | 40.8 | 95 | 111 | 1310 | 439 | 4400 | 101 | 91.9 | 117 | 975 | 20 | 766 | 54.3 |
| CCn1c(-c2nonc2N)nc2c(C#CC(C)(C)O)ncc(OC[C@H]3CCCNC3)c21 | – | – | – | 1870 | – | 1730 | – | – | – | 2160 | – | 2190 | 269 |
| CCn1c(-c2nonc2N)nc2cnc(Oc3cccc(NC(=O)c4ccc(OCCN5CCOCC5)cc4)c3)cc21 | 1120 | 1280 | – | 1610 | – | 1660 | 1070 | – | 287 | 1540 | 50.4 | 1970 | 63.4 |
| CN(c1ccccc1CNc1nc(Nc2ccc3c(c2)CC(=O)N3)ncc1C(F)(F)F)S(C)(=O)=O | 553 | 1380 | 1030 | 1950 | 1470 | 4290 | 715 | 1130 | 1710 | 1130 | 1600 | 1720 | 609 |
| CN(c1ncccc1CNc1nc(Nc2ccc3c(c2)CC(=O)N3)ncc1C(F)(F)F)S(C)(=O)=O | 1090 | 1930 | 1310 | 3740 | 1530 | 4770 | 1540 | 2960 | 3040 | 2320 | 2870 | 3440 | 2000 |
| O=C1NC(=O)/C(=C/c2ccc3nccc(-c4ccncc4)c3c2)S1 | 681 | 846 | 810 | 1650 | 529 | 116 | 644 | – | 1200 | 749 | 1100 | 1250 | 543 |
| O=c1cc(N2CCOCC2)oc2c(-c3ccccc3)cccc12 | 13600 | 11500 | 9060 | 16800 | 8330 | 6670 | 5080 | 35200 | 12300 | 13400 | 4830 | 11700 | 5890 |
| COc1ccc(C[C@H](NC(=O)[C@H](C)NC(=O)CN2CCOCC2)C(=O)N[C@@H](Cc2ccccc2)C(=O)C2(C)CO2)cc1 (stereo in doubt) [ONX-0914] | 142 | 18.1 | 38.1 | 61.8 | 64.7 | 20.1 | 29 | 158 | 24.4 | 30.6 | 62.6 | 27.4 | 18.7 |
| Nc1ncnc2c1nc(N)n2[C@@H]1O[C@H](CO)[C@@H](O)[C@H]1O [8-amino-adenosine] | 836 | 320 | 757 | 6780 | 862 | 13100 | 360 | 1080 | 431 | 6680 | 68.1 | 5810 | 489 |
| Nc1ncnc2c1nc(Cl)n2[C@@H]1O[C@H](CO)[C@@H](O)[C@H]1O [8-chloro-adenosine] | 2820 | 579 | 1440 | 7030 | 1870 | 5340 | 4720 | 19300 | 2610 | 5980 | 330 | 6010 | 641 |
| COc1cc(O)c2c(c1)/C=C/C[C@H](O)[C@H](O)C(=O)/C=C\C[C@H](C)OC2=O [(5Z)-7-Oxozeaenol] | 480 | 797 | 1140 | 2050 | 1060 | 688 | 156 | – | 1510 | 782 | 1560 | 1600 | 572 |
| COCC1(CO)C(=O)C2CCN1CC2 (configuration not stated) [APR-246] | – | – | – | 442 | – | 277 | – | – | – | 566 | – | 393 | – |
| CN1CC[C@H](c2c(O)cc(O)c3c(=O)cc(-c4ccccc4Cl)oc23)[C@H](O)C1 [Alvocidib] | 136 | 55.3 | 142 | 164 | 133 | 370 | 126 | 410 | 117 | 182 | 8.41 | 150 | 174 |
| CCS(=O)(=O)N1CC(CC#N)(n2cc(-c3ncnc4[nH]ccc34)cn2)C1 [Baricitinib] | 26.2 | 18.4 | 63.5 | 124 | 163 | – | 12 | 451 | 95.8 | 46.9 | 73.3 | 54.4 | 51.9 |
| CN(C)c1cc2c(cc1Sc1nc3c(N)nccc3n1CCNCC(C)(C)C)OCO2 [CUDC-305] | 243 | 114 | 158 | 308 | 302 | 199 | 293 | 301 | 204 | 232 | 328 | 208 | 164 |
| C=CC(=O)Nc1cc2c(Nc3ccc(F)c(Cl)c3)ncnc2cc1OCCCN1CCOCC1 [Canertinib] | 2670 | 1100 | 1990 | 1290 | 1970 | 333 | 1290 | 3700 | 1180 | 402 | 2980 | 710 | 1080 |
| Cc1c2oc3c(C)ccc(C(=O)N[C@@H]4C(=O)N[C@H](C(C)C)C(=O)N5CCC[C@H]5C(=O)N(C)CC(=O)N(C)[C@@H](C(C)C)C(=O)O[C@@H]4C)c3nc-2c(C(=O)N[C@@H]2C(=O)N[C@H](C(C)C)C(=O)N3CCC[C@H]3C(=O)N(C)CC(=O)N(C)[C@@H](C(C)C)C(=O)O[C@@H]2C)c(N)c1=O [Dactinomycin] | 2.49 | 4.77 | 0.55 | 12.7 | 0.98 | 4.39 | 0.68 | 12.2 | 24.7 | 13.4 | 0.27 | 5.98 | 1.43 |

| SMILES | relative IC50 [1] [nM] | relative IC50 [2] [nM] | relative IC50 [3] [nM] | relative IC50 [4] [nM] | relative IC50 [5] [nM] | relative IC50 [6] [nM] | relative IC50 [7] [nM] | relative IC50 [8] [nM] | relative IC50 [9] [nM] | relative IC50 [10] [nM] | relative IC50 [11] [nM] | relative IC50 [12] [nM] | relative IC50 [13] [nM] |
| --- | --- | --- | --- | --- | --- | --- | --- | --- | --- | --- | --- | --- | --- |
| O=C(/C=C/c1cccnc1)NCCCCC1CCN(C(=O)c2ccccc2)CC1 [Daporinad] | 3.01 | 3.88 | 0.77 | 0.87 | 6.27 | 0.29 | 2.57 | 3.61 | 6.07 | 0.52 | 0.75 | 0.63 | 1.27 |
| COc1cccc2c1C(=O)c1c(O)c3c(c(O)c1C2=O)C[C@@](O)(C(C)=O)C[C@@H]3O[C@H]1C[C@H](N)[C@H](O)[C@H](C)O1 [Daunorubicin] | 38.2 | 54.5 | 31.1 | 42 | 40.8 | 15.7 | 3.74 | 19.2 | 45.7 | 21.6 | 34.7 | 20.8 | 21.7 |
| CCN(CC)C(=S)SSC(=S)N(CC)CC [Disulfiram] | 2300 | 16200 | 987 | 320 | 25700 | 309 | 256 | 1590 | 30100 | 323 | 40300 | 224 | 194 |
| CCOC(=O)CCNc1cc(N2CCc3ccccc3CC2)nc(-c2ccccn2)n1 [GSK-J4] | 1740 | 3340 | 3320 | 2110 | 2670 | 1280 | 3370 | 1230 | 837 | 2100 | 3020 | 3280 | 2480 |
| C[C@@H]1C=C2C(=O)O[C@@H]3CC[C@H](C1)[C@]23O [Galiellalactone] | 5240 | 3340 | 3660 | 7360 | 8550 | 3720 | – | – | 5040 | 4800 | 3970 | 5560 | 3110 |
| Cc1cc(Nc2cc(CN3CCOCC3)c3nc(C)c(Cc4ccc(Cl)cc4F)n3n2)n[nH]1 [Gandotinib] | 107 | 89.6 | 260 | 669 | 448 | – | 75 | 1260 | 236 | 362 | 230 | 183 | 163 |
| C[C@H]1C[C@@H]2[C@H]([C@@H](O)C[C@@]3(C)[C@H]2CC[C@]3(O)C(=O)CO)[C@@]2(C)C=CC(=O)C=C12 [Methylprednisolone] | 197 | – | – | 88.8 | 164 | 9.66 | 13.3 | > 10000 | – | 33.4 | – | 41.7 | 22.1 |
| COC(=O)c1ccc2c(c1)NC(=O)/C2=C(\Nc1ccc(N(C)C(=O)CN2CCN(C)CC2)cc1)c1ccccc1 [Nintedanib] | 1720 | 1850 | 1700 | 2730 | 2580 | 1010 | 902 | 3980 | 1070 | 1200 | 4280 | 1580 | 1210 |
| COC(=O)C[C@](O)(CCCC(C)(C)O)C(=O)O[C@@H]1C(OC)=C[C@]23CCCN2CCc2cc4c(cc2[C@H]13)OCO4 [Omacetaxine] | 35.2 | 6.32 | 30.7 | 10.6 | 17.5 | 1.15 | 29.8 | 33.6 | 25.7 | 6.62 | 6.73 | 5.02 | 7.54 |
| CN1CCN(c2cc(C(=O)Nc3ccc4c(c3)-c3c(c(C(N)=O)nn3-c3ccc(F)cc3)CC4)c(Cl)cn2)CC1 [PHA 408] | 2990 | 940 | 2440 | 2780 | 1920 | 2140 | 1620 | 2970 | 2090 | 2590 | 1620 | 2100 | 1350 |
| CC(=O)c1c(C)c2cnc(Nc3ccc(N4CCNCC4)cn3)nc2n(C2CCCC2)c1=O [Palbociclib] | 279 | 3090 | 413 | 3430 | – | 4040 | 1550 | 2620 | 1780 | 3580 | – | 2850 | 1380 |
| Cc1[nH]c2ccccc2c1CCNCc1ccc(/C=C/C(=O)NO)cc1 [Panobinostat] | 16.3 | 5.94 | 17.4 | 13.5 | 21.2 | 5.89 | 8.13 | 29.9 | 13.4 | 12.9 | 14.3 | 7.38 | 12.5 |
| C[C@@H]1C[C@H]2O[C@@H]2/C=C\C=C\C(=O)Cc2c(Cl)c(O)cc(O)c2C(=O)O1 [Radicicol] | 209 | 72.1 | 198 | 132 | 423 | 520 | 134 | 310 | 130 | 126 | 81.8 | 75.2 | 37.3 |
| O=C(/C=C\n1cnc(-c2cc(C(F)(F)F)cc(C(F)(F)F)c2)n1)NNc1cnccn1 [Selinexor] | 152 | 93.3 | 166 | 80.8 | 64.1 | 24.2 | 106 | 497 | 168 | 76.7 | 48.3 | 52.4 | 65.1 |
| COc1cc([C@@H]2c3cc4c(cc3[C@@H](O[C@@H]3O[C@@H]5CO[C@@H](c6cccs6)O[C@H]5[C@H](O)[C@H]3O)[C@H]3COC(=O)[C@H]23)OCO4)cc(OC)c1O [Teniposide] | 27.8 | 18.8 | 13.3 | 1250 | 122 | 139 | 10 | 20.3 | 84.1 | 534 | 32 | 965 | 15.5 |
| COc1cc2c(NC3CCN(C(C)C)CC3)nc(C3CCCCC3)nc2cc1OCCCN1CCCC1 [UNC0638] | 2540 | 528 | 2570 | 3360 | 3050 | 2290 | 2290 | 2780 | 1660 | 3450 | 1600 | 3070 | 2120 |

— the supplement of paper PMC5908809
